Source: BigSolDB 2.1

CC(C)(C)c1ccc(OP2OCC3(CO2)COP(Oc2ccc(C(C)(C)C)cc2C(C)(C)C)OC3)c(C(C)(C)C)c1 (stereo not drawn)
Conditions | solubility (mole fraction)
in ethanol, 303.25 K | 0.000185
in ethanol, 308.15 K | 0.000249
in ethanol, 312.85 K | 0.000324
in ethanol, 318.15 K | 0.000365
in ethanol, 322.95 K | 0.000426
in ethanol, 328.15 K | 0.000534
in ethanol, 332.15 K | 0.000669
in isopropanol, 304.15 K | 0.000296
in isopropanol, 308.35 K | 0.000371
in isopropanol, 313.15 K | 0.000473
in isopropanol, 318.25 K | 0.000657
in isopropanol, 323.15 K | 0.000752
in isopropanol, 327.95 K | 0.00113
in isopropanol, 333.35 K | 0.00163
in methanol, 304.65 K | 5.05e-05
in methanol, 308.25 K | 5.84e-05
in methanol, 312.95 K | 7.84e-05
in methanol, 318.15 K | 0.000119
in methanol, 322.65 K | 0.000154
in n-propanol, 303.15 K | 0.000477
in n-propanol, 308.15 K | 0.000582
in n-propanol, 313.05 K | 0.000735
in n-propanol, 318.25 K | 0.000925
in n-propanol, 322.75 K | 0.00113
in n-propanol, 327.95 K | 0.00146
in n-propanol, 333.15 K | 0.00182
in tert-butanol, 302.95 K | 0.000674
in tert-butanol, 308.05 K | 0.000853
in tert-butanol, 313.15 K | 0.0012
in tert-butanol, 318.45 K | 0.00157
in tert-butanol, 323.05 K | 0.00222
in tert-butanol, 328.45 K | 0.00302
in tert-butanol, 332.95 K | 0.00379
